Data as given in patent US10399966B2, “Compounds for treatment of trypanosomes and neurological pathogens and uses thereof” (The University of North Carolina at Chapel Hill, priority 2016, dated 2019).
Read-outs that look alike come from different tables or passages of the source. Marks after values point to notes of the source that are not given here.

Key:
[1] = Metabolic stability in human liver microsomes; assay type: in vitro ADME; details: for Human microsomes, percentage of compound remaining / half-life at 1.5 μM: Table 12; for Human microsomes, percentage of compound remaining: after 60 min (where t1/2 > 60 min); for half-life at 3 μM / half-life at 1.5 μM: both sexes, human, liver microsomes, pH 7.4; for half-life at 3 μM: Table 5, read-out: Microsome t1/2 (min) Human; for half-life at 1.5 μM: 37° C., NADPH (1 mM), microsomes 0.5 mg/mL, test compounds 1.5 μM, read-out: Human microsomes t1/2
Description: (§1) Metabolic stability was evaluated using liver microsomes derived from mouse and human sources. Microsomal incubations were carried out according to a protocol described previously (Wang et al., Antimicrob. Agents Chemother. 54:2507 (2010)) with modifications. Briefly, substrate stock solutions were prepared in DMSO and DMSO content was kept at 0.5% (v/v) in final incubations. Incubation mixtures ([…]), liver microsomes (0.5 mg/mL) from mouse (pool of 1000, CD-1 male mouse) or human (pool of 50, mixed gender) (XenoTech LLC, Lenexa, Kans.) in a phosphate buffer (100 mM, pH 7.4) containing 3.3 mM MgCl2. After a 5-minute pre-equilibration period at 37° C., reactions (in triplicate) were initiated by adding the NADPH cofactor (1 mM). For NADPH-independent reactions, the cofactor was replaced with water. Aliquots (10 μl) of the reaction mixtures were removed at 0, 15, 30, and 60 minutes and individually mixed with 200 μL of ice-cold acetonitrile containing internal standard. The mixtures were vortex-mixed, and precipitated protein was removed by centrifugation at 2,250×g for 15 min. The supernatant fractions were dried using a 96-well microplate evaporator (Apricot Designs Inc., Covina, Calif.) under N2 at 50° C. and reconstituted with 100 μL 50% methanol containing 0.1% trifluoroacetic acid before UPLC-MS/MS analysis. In vitro half-life (t1/2) was obtained by analyzing the substrate concentration vs. incubation time curve using the one-phase exponential decay model (GraphPad Prism® 5.0, San Diego, Calif.).

[2] = Mouse oral pharmacokinetics; assay type: in vivo; details: for Tmax: read-out: Mouse oral PK Tmax (converted); for percent of the Cmax remaining: mouse oral 50 mg/kg
Description: […] Experiments were performed with groups of three mice per compound. Plasma was separated and extracted with acetonitrile for measurements of compound concentrations by liquid chromatography/tandem mass spectrometry.

[3] = Distribution between mouse plasma and brain (brain penetration, ip); assay type: in vivo; details: for [compound]Brain / [compound]Plasma / Brain/plasma ratio: Table 14, mice, single ip dose 5 mg/kg, one hour post-dose; for [compound]Brain / [compound]Plasma: ± SEM of 3 mice (compound 3: 6 mice); for Kp at 1 h / concentration at 60 min / concentration at 1 h: 5 mg/kg; for Kp at 1 h: read-out: Average brain/plasma ratio
Summary of the method: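 Mice (n=3) received a single 5 mg/kg ip dose in 7% Tween 80, 3% ethanol, 5% DMSO, 0.9% saline and were sacrificed 1 h post-dose. Plasma and acetonitrile brain homogenates analysed by LC/MS/MS; brain concentration corrected for 2.5% vasculature volume, assuming 1 g = 1 mL.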

in vitro = details: human
Description: (§2) The selectivity of each compound for the parasite over each of the two cell lines was calculated.

[4] = Metabolic stability in mouse liver microsomes; assay type: in vitro ADME; details: for Mouse microsomes, percentage of compound remaining: after 60 min (where t1/2 > 60 min); for half-life at 1.5 μM: read-out: Mouse microsomes t1/2
Description: as §1

Trypanosoma cruzi = assay: Efficacy against T. cruzi in vitro; assay type: cell-based; details: Trypanosoma cruzi; for EC90: read-out: T.cruzi EC90
human hepatocytes HepG2 = assay: Cytotoxicity against HepG2 cells; details: for EC50: Homo sapiens, HepG2, read-out: HepG2 EC50
[5] = Cytotoxicity against HepG2 cells; details: human
[6] = system: human lymphocytes CRL-8155; assay: Cytotoxicity against CRL-8155 cells; details: human lymphoblasts; for EC50: read-out: CRL-8155 EC50, concentration required to inhibit growth by 50%; for EC90: read-out: CRL-8155 EC90, concentration required to inhibit growth by 90%
Description: as §2

T. b. brucei = assay: In vitro antitrypanosomal activity against T. brucei (growth inhibition); assay type: cell-based, Trypanosoma brucei; details: Trypanosoma brucei; for EC90: read-out: T. brucei EC90
Summary of the method: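 Dose-response EC50 against T. brucei parasites with 0.4% DMSO final, 48 h at 37 °C; parasite density quantified by ATP luminescence (CellTiter-Glo).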

T. b. brucei TREU667 = assay: Mouse efficacy model of chronic T. brucei infection; assay type: in vivo; details: single intraperitoneal dose 10 mg/kg on day 21
Description: For chronic efficacy, experiments were done in compliance with the University of Washington IACUC approved protocol. According to published procedures, groups of 5 mice were infected with 1×10^4 T. b. brucei (strain TREU667) at day 0 to establish a chronic infection. Treatment began on day 21 post-infection, and mice received 50 mg/kg test compound orally b.i.d. for 10 d (total of 20 doses) in a 200 μL volume of a vehicle composed of Phosal 53 MCT (60%), PEG400 (30%) and EtOH (10%). A control group received vehicle with no compound and another control group received a single intraperitoneal dose of diminazene aceturate at 10 mg/kg in water on day 21. […] Post dosing, parasitemia was monitored via microscopic examination of tail blood slides until 180 days post-infection. Mice were removed from the experiment once parasites were detected in the blood.
In a model of the chronic phase of HAT, compound 1 was administered to five mice infected with T. b. brucei TREU667 at 50 mg/kg/po b.i.d.×10 days, beginning 21 days post-infection. […] Efficacy PK blood samples were collected from three of the five mice prior to dose 15, and at 1 h and 6 h post-dose. […] Compound 1 attained 5/5 cures as determined by the absence of detectable parasitemia in any of the treated mice through 180 days post-infection (FIG. 2). […]

[7] = system: human lymphocytes CRL-8155
Description: as §2

[8] = Table 13, mice, single 50 mg/kg oral gavage, vehicle Tween 80 (7%), EtOH (3%), DMSO (5%) in 0.9% NaCl, ± SEM of 3 mice, read-out: Cmax
[9] = mouse, plasma, po, 50 mg/kg, Table 5, n = 3, read-out: Mouse oral PK Average Cmax
[10] = mouse, plasma, po, 50 mg/kg, Table 5
[11] = Table 8, groups of 3 mice (compound 3: ± SEM of 6 mice)
[12] = male, CD-1, mouse, liver microsomes, pH 7.4, Table 12, 37° C., NADPH (1 mM), microsomes 0.5 mg/mL, test compounds 1.5 μM
[13] = Table 10, read-out: T.cruzi EC50
[14] = Table 8, read-out: T. brucei EC50
[15] = Table 11, read-out: T. b. brucei EC50
[16] = Table 12, read-out: T. b. brucei EC50
[17] = Table 9, read-out: T. brucei EC50
[18] = Table 13, mice, single 50 mg/kg oral gavage, vehicle Tween 80 (7%), EtOH (3%), DMSO (5%) in 0.9% NaCl, ± SEM of 3 mice
[19] = mouse, brain and plasma, intraperitoneal, Table 8, groups of 3 mice
[20] = read-out: HepG2 EC90, concentration required to inhibit growth by 90%, human hepatocytes

SMILES	Human microsomes, percentage of compound remaining [1] [%]	half-life at 3 μM [1] [min]	half-life at 1.5 μM [1] [h]	Mouse oral PK Tlast ([2]; Table 5) [min]	Mouse oral PK Average AUC ([2]; Table 5, n = 3)	Cmax [2, 8] [µM]	Cmax [2, 9] [µM]	Tmax [2, 10] [h]	Average [compound] brain [3, 11]	Average [compound] plasma [3, 11]	EC50 (Trypanosoma cruzi; [13]) [nM]	EC90 (Trypanosoma cruzi; Table 10) [nM]	melting point [°C]	EC50 (human hepatocytes HepG2) [nM]	EC50 [6] [nM]	EC50 (T. b. brucei; [14]) [nM]	EC50 (T. b. brucei; [15]) [nM]	EC50 (T. b. brucei; [16]) [nM]	EC50 (T. b. brucei; [17]) [nM]	EC90 (T. b. brucei; Table 9) [nM]	other results
O=C(Nc1ccc2sc(-c3ccc(F)c(F)c3)nc2c1)N1CCC(F)C1 (racemic) [Compound 3, 2-(3,4-Difluorophenyl)-5-(3-fluoro-N-pyrrolidylamido)benzothiazole]	99	> 60	> 1	480	3847 ± 466 (n = 3) min * μmol/L	10 ± 0.65	10 ± 1.1	1	5.48 ± 0.683^a μM	3.26 ± 0.630^a μM	177	525	209 to 210	> 50000	> 50000	51.9	51.9	51.9	51.9	91.9	[compound]Brain [3]: 5.48 ± 0.683^b μM; [compound]Plasma [3]: 3.26 ± 0.630^b μM; Kp at 1 h ([3]; mouse, in vivo, Table 5, mouse brain penetration (60 min), n = 3): 1.52 ± 0.0416; concentration at 60 min ([3]; mouse, in vivo, Table 5 r15, mouse brain penetration (60 min), n = 3): 2.78 ± 0.652 µM; concentration at 60 min ([3]; mouse, in vivo, Table 5 r17 (second line so headed), mouse brain penetration (60 min), n = 3): 4.22 ± 0.974 µM; Kp at 1 h ([3]; mouse, in vivo, Table 8, groups of 3 mice): 2.11 ± 0.669; EC90 (in vitro): > 50000 nM; Mouse microsomes, percentage of compound remaining ([4]; Table 12): 52%; half-life at 3 μM ([4]; male, CD-1, mouse, liver microsomes, pH 7.4, Table 5, read-out: Microsome t1/2 (min) Mouse): 60 min; half-life at 1.5 μM [4, 12]: > 1 h; EC50 (Trypanosoma cruzi; Table 6, read-out: T. cruzi EC50): 91.9 nM; EC90 [5]: > 50000 nM; EC50 (T. b. brucei; Table 6, read-out: T. brucei EC50): 51.9 nM
O=C(Nc1ccc2sc(-c3ccc(F)c(F)c3)nc2c1)N1CCCC1 [Compound 2, 2-(3,4-Difluorophenyl)-5-(N-pyrrolidylamido)benzothiazole]	66	> 60	> 1	480	408 ± 95 (n = 3) min * μmol/L	2.01 ± 0.46	2 ± 0.82	1	4.25 ± 1.20 µM	2.61 ± 1.26 µM	339	483	221 to 223	> 50000	33900	91.8	91.8	91.8	91.8	181	AUC0 min-∞ [2, 18]: 443.3 ± 43.07 µM·min; Brain/plasma ratio [3]: 1.81 ± 0.458; Kp at 1 h ([3]; mouse, brain and plasma, intraperitoneal, Table 5, mouse brain penetration (60 min), n = 3): 1.81 ± 0.793; Kp at 1 h ([3]; mouse, brain and plasma, intraperitoneal, Table 7, groups of 3 mice): 1.81 ± 0.793; Kp at 1 h [3, 19]: 1.81 ± 0.793; concentration at 1 h ([3]; mouse, brain, intraperitoneal, Table 7, groups of 3 mice, read-out: Average [compound] brain): 4.25 ± 1.2 µM; concentration at 1 h ([3]; mouse, plasma, intraperitoneal, Table 7, groups of 3 mice, read-out: Average [compound] plasma): 2.61 ± 1.26 µM; concentration at 60 min ([3]; plasma, intraperitoneal, Table 5 r15, mouse brain penetration (60 min), n = 3): 2.61 ± 1.26 µM; Microsome t1/2 (min) Mouse ([4]; Table 5): 13.8 min; Mouse microsomes t1/2 ([4]; Table 12, 37° C., NADPH (1 mM), microsomes 0.5 mg/mL, test compounds 1.5 μM): 0.233 h; EC90 (human hepatocytes HepG2; [20]): > 50000 nM; EC90 [6]: > 50000 nM; EC50 (T. b. brucei; Table 7, read-out: T. brucei EC50): 91.8 nM
O=C(Nc1ccc2sc(-c3ccc(F)c(F)c3)nc2c1)N1C[C@@H](F)[C@H](F)C1 [Compound 35, (3R,4R)-2-(3,4-Difluorophenyl)-5-(3,4-difluoro-N-pyrrolidylamido)benzothiazole]	96	–	> 1	–	–	11 ± 0.58	–	–	–	–	562	652	217 to 218	> 50000	27100	114	114	114	114	747	AUC0 min-∞ [2, 18]: 13515 ± 224.6 µM·min; percent of the Cmax remaining ([2]; 24 h time point): 34%; percent of the Cmax remaining ([2]; 32 h time point): > 17%; Brain/plasma ratio [3]: 7.71 ± 1.63; [compound]Brain [3]: 16.2 ± 2.88 µM; [compound]Plasma [3]: 2.19 ± 0.424 µM; Kp at 1 h [3, 19]: 7.71 ± 1.63; concentration at 1 h ([3]; mouse, brain, intraperitoneal, Table 8, groups of 3 mice (compound 3: ± SEM of 6 mice), read-out: Average [compound] brain): 16.2 ± 2.88 µM; concentration at 1 h ([3]; mouse, plasma, intraperitoneal, Table 8, groups of 3 mice (compound 3: ± SEM of 6 mice), read-out: Average [compound] plasma): 2.19 ± 0.424 µM; Mouse microsomes, percentage of compound remaining ([4]; Table 12): 67%; half-life at 1.5 μM [4, 12]: > 1 h; EC90 (human hepatocytes HepG2; [20]): > 50000 nM; EC90 [6]: > 50000 nM
N=C(N)c1ccc(/N=N/Nc2ccc(C(=N)N)cc2)cc1 [diminazene aceturate, reference compound]	–	–	–	–	–	–	–	–	–	–	–	–	–	–	–	–	–	–	–	–	parasitemia outcome (in words) (T. b. brucei TREU667): temporary clearance of parasitemia, but subsequently relapsed
CCN(CC)CCCC(C)Nc1c2ccc(Cl)cc2nc2ccc(OC)cc12 (stereo not drawn) [quinacrine, reference compound]	–	–	–	–	–	–	–	–	–	–	–	–	–	10400	–	–	–	–	–	–	EC90 (human hepatocytes HepG2; human): 18200 nM; EC90 [7]: 9940 nM
